The results in this text go back to US20140336135A1, “NOVEL USE OF RHODODENDRIN” (Catholic University Industry Academy Cooperation Foundation, priority 2013, published 2014).

Data set [1] concerns mice having psoriasis induced by imiquimod. As to the kind of experiment: Inhibition of hyperkeratinization in imiquimod psoriasis-induced mouse model (histology, qRT-PCR). Type of data set: in vivo, mice (C57BL/6). As to the method: Tissues were excised from mice having psoriasis induced by imiquimod, and then the effect of rhododendrin on the inhibition of hyperkeratinization in the tissues was examined by histological analysis and qRT (quantitative real-time)-PCR analysis.
Specifically, in order to induce psoriasis by imiquimod, the hairs on the back of 8-week-old mice (C57BL/6, Central Animal Laboratory Inc.) were removed by using hair removal cream. The back of the mice was pre-treated daily with 20 mM rhododendrin before 1 hour, and then imiquimod (3.125 mg) was applied to the back at an one-day interval for 7 days. On the last day of application, the tissues were collected.
Histological examination of the mice skin was performed in the following manner. The mouse skin tissues were fixed in PBS containing 4% paraformaldehyde for 24 hours, washed with tap water, dehydrated with ethanol, and then embedded in paraffin to make a paraffin block. The paraffin block was cut with a microtome into 4 μm-thick sections, which were then placed on a glass slide and treated with xylene to remove wax (paraffin). Then, the tissue sections were dehydrated with ethanol and stained with hematoxylin-eosin (H&E). Histological analysis was performed using a fluorescence attached microscope (Olympus, Japan).
RNA isolation and qRT (quantitative real-time)-PCR analysis were performed in the following manner. Total RNAs were isolated from the tissues using an RNeasy Mini Kit (Qiagen, Valencia, Calif., USA) according to the manufacturer's instructions, and then synthesized into cDNA using QuantiTect Reverse Transcription Kit (Qiagen) according to the manufacturer's instructions. qRT-PCR was performed using Rotorgene™6000 (Corbett life Science) with KAPA™SYBR FAST q-PCR Master Mix(2×) universal. The relative amount of mRNAs was determined by […] method using GAPDH as an internal control. PCR was performed under the following conditions: 95° C. for 5 min; 35 cycles, each consisting of 96° C. for 20 sec, 60° C. for 20 sec and 72° C. for 20 sec; and one cycle at 72° C. for 5 min.
Background: In qPCR the cycle at which signal appears reflects the starting amount.

In data set [2] the test system is HaCaT cells. The data set can be described thus: Cytotoxicity of rhododendrin, MTT cell viability. The settings on record: various concentrations, 24 hours. Type of data set: cell-based, human. The method, then:
HaCaT cells were purchased from CLS Cell Line Service GmbH (Eppelheim, Germany). HaCaT cells were seeded at a density of 2×10^4 cells/well in 96-well plates. After a 12 hours incubation, the cells were incubated with various concentrations of rhododendrin for 24 hours. Then, cells were incubated with 3-(4,5-dimethylthiaol-2-yl)-2,5-diphenyltetrazolium bromide (MTT) reagent for 2-4 hours at 37° C. To calculate cell viability, MTT signals were quantified with a microplate reader (BioTek, Winooski, Vt., USA) at wavelength of 540 nm.

For data set [3], the system named is HaCaT cells. As to the kind of experiment: ROS scavenging activity, ROS induced by TNF-α/IFN-γ (H2DCF-DA). It counts as cell-based, human. As to the method:
HaCaT cells were seeded at a density of 3×10^5 cells/well in 6-well plates for 12 hours. Cells were washed with serum-free media, treated with 20 μm rhododendrin for 1 hour, and then stimulated with 10 ng/ml of TNF-α and 100 U/ml of […] for 3 hours. The cells were stabilized in Hanks' balanced salt solution (HBSS) for 30 minutes, stained with 10 μM 2′,7′-dichlorofluorescin diacetate (H2DCF-DA) at 37° C. for 30 minutes, and ROS signal was then analyzed with confocal microscopy with emission at 513 nm and excitation at 488 nm. Also, the fluorescence of the cells was measured with a microplate reader (Synergy, BIO TEK, US).

Data set [4] deals with TLR7 signaling. The data set can be described thus: Effect on TLR7 signaling pathway in keratinocytes (Western blot, immunofluorescence). It counts as cell-based, human. As to the method:
Keratinocytes were treated with imiquimod, and then TLR7 signaling in the cells was examined by Western blot analysis and immune fluorescence staining. The detailed experimental methods are as follows.
Primary keratinocytes collected from the foreskin of a healthy subject were cultured. Human keratinocytes were cultured in keratinocyte serum-free medium (K-SFM) supplemented with epidermal growth factor (EGF) and bovine pituitary extract (Gibco BRL, Rockville, Md.). When the cells reached to 70% confluency, the cells were washed twice with PBS and cultured in K-SFM for 24 hours. To induce the differentiation of the keratinocytes, 1.2 mM calcium was added to the cells which were then cultured for 1, 3, 7 and 14 days, respectively.
Western blot analysis was performed in the following manner. Serum-starved keratinocytes were treated with various concentrations of rhododendrin for 1 hour, and then stimulated by treatment with imiquimod for different time periods. The cell pellets were lysed in ice-cold RIPA buffer (Roche Applied Science, Indianapolis, Ind., USA) containing protease inhibitor cocktail at 4° C. for 30 minutes. Protein samples were isolated by SDS-PAGE (sodium dodecylsulfate-polyacrylamide gel electrophoresis) and analyzed by immunoblotting. Briefly, the protein on the SDS polyacrylamide gel was transferred to a nitrocellulose membrane (Amersham, UK). […] A signal was detected using X-ray film development or Image-Analyzer System (LAS-3000, Fujifilm, Japan) in a dark room.
In addition, the expression patterns of TLR7, NF-kB (a marker of TLR7) and caveolin (a marker of psoriasis) were analyzed by immunofluorescence in the following manner.
Primary keratinocytes (5×10^5 cells/well) were pre-treated with rhododendrin for 1 hour, and then stimulated with imiquimod for 1 hour. The signal of immunostained NF-kB p65 was analyzed by the method described in Y. Kim. et. al., Free Radical Biology and Medicine; 51(11): 1985-1995, 2011. […]
(Immunoblotting shows a protein as a band on a membrane.)

The test system of data set [5] is Human keratinocyte HaCaT cells. As to the kind of experiment: Inhibition of intracellular ROS induced by UV irradiation (H2DCF-DA). Type of data set: cell-based. The settings on record: 20 μM rhododendrin 1 hour, then 100 J/m^2 UV light. As to the method:
Human keratinocyte HaCaT cells (obtained from professor N. Fusenig, Cancer Research, Germany) were placed in a 60-mm culture dish at a density of 5×10^5 cells (1×10^6 cells for a 100 mm culture dish), and then cultured in 10% FBS (fetal bovine serum)-containing DMEM (Dulbecco's modified Eagle's medium) for 24 hours.
After culture, the cells were treated with 20 μM rhododendrin for 1 hour, and then washed three times with PBS (phosphate buffered saline). To induce ROS (reactive oxygen species), the cells were irradiated with 100 J/m^2 of UV light from a UV lamp (FSX 24 T12/UVB/HO, Pansol™ USA). Immediately after UV irradiation, the cells were washed with PBS and cultured for 4 hours in 1% FBS-containing DMEM medium supplemented with […]. Then, the cells were treated with 25 μM DCFH-DA (2,7-dichlorofliuorescin diacetate) in HBSS (Hank's balanced salt solution, BioWhittaker, CAMBREX, USA) buffer for 30 minutes, and then washed three times with PBS. Next, the measurement of ROS production in the cells by H2DCF-DA staining was performed in the same manner as described in Example 3-1.

SMILES strings stand for the structures.

For `C[C@H](CCc1ccc(O)cc1)O[C@@H]1O[C@H](CO)[C@@H](O)[C@H](O)[C@H]1O` [rhododendrin, Rhododendrin], the “induction of psoriasis (visual observation of the back tissue)” value in data set [1] (20 mM rhododendrin on the back daily 1 hour before imiquimod (3.125 mg), 7 days, FIGS. 6 to 8) is given as “significantly decreased”. Besides, in data set [1] (20 mM rhododendrin topical, imiquimod 7 days, H&E histology, FIGS. 7, 8), the “thickness of the epidermal and dermal layers” value was “a decrease in the thickness of the epidermal and dermal layers”. The “expression of TLR (mRNA, qRT-PCR) in skin tissue” value in data set [1] (20 mM rhododendrin topical, imiquimod 7 days, versus control group, FIG. 9) is “significantly lower”. The “cytotoxicity (cell viability, MTT)” value in data set [2] is “no cytotoxicity”. Further, in data set [3] (20 μM rhododendrin, then TNF-α/IFN-γ, FIG. 3), the “production of DCF-fluorescence (microplate reader)” value was “decreased to that in the control group not treated with TNF-α/IFN-γ”. The “ROS signal (H2DCF-DA fluorescence) by confocal microscopy” value in data set [3] (20 μm rhododendrin 1 hour, then 10 ng/ml TNF-α and 100 U/ml IFN-γ 3 hours, FIG. 2) is recorded as “no fluorescence was detected”. For the same compound, in data set [4] (keratinocytes, imiquimod and 20 μM rhododendrin, fluorescence staining, FIG. 14), the “activity of caveolin (marker of psoriasis)” value is given as “protected”. For the same compound, the “activity of TLR7 (down signaling)” value in data set [4] (primary keratinocytes pre-treated with rhododendrin 1 hour, then imiquimod, FIGS. 12 and 13) is given as “inhibited”. Also, in data set [4] (primary keratinocytes pre-treated with rhododendrin 1 hour, then imiquimod, phospho-NF-kB p65 Western blot and p65 immunostaining, FIGS. 12 and 13), the “activity of NF-kB (marker of TLR7)” value is “also inhibited”. In data set [5] (FIG. 4), the “ROS fluorescence by confocal microscopy” value is on record as “only very minute fluorescence spots were found”. Besides, in data set [5] (versus group not treated, FIG. 5), the “amount of DCF-fluorescence (microplate reader)” value was “significantly lower”.
